# Source: PubChem BioAssay (NCI)
# Where “and” joins values, the source holds several entries; their conditions need not be identical. Identical values can stand only once.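 Each compound was tested at five concentrations against cells in 96-well plates for 48 hours. Abbreviation: GI50, concentration required for 50% inhibition of growth. TGI is the concentration that stops growth completely.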
# Legend:
# Experiment in all cases: NCI anticancer screen, dose series, 48 h
# A498 renal = test system: A498 renal
# BT-549 breast = test system: BT-549 breast
# CAKI-1 renal = test system: CAKI-1 renal
# HS 578T breast = test system: HS 578T breast
# IGROV1 ovarian = test system: IGROV1 ovarian
# LOX IMVI melanoma = test system: LOX IMVI melanoma
# OVCAR-5 ovarian = test system: OVCAR-5 ovarian
# SK-OV-3 ovarian = test system: SK-OV-3 ovarian
# UACC-62 melanoma = test system: UACC-62 melanoma
# UO-31 renal = test system: UO-31 renal
Structure (SMILES),GI50 (A498 renal) [µM],TGI (A498 renal) [µM],GI50 (BT-549 breast) [µM],TGI (BT-549 breast) [µM],GI50 (CAKI-1 renal) [µM],TGI (CAKI-1 renal),GI50 (HS 578T breast) [µM],TGI (HS 578T breast) [µM],GI50 (IGROV1 ovarian) [µM],TGI (IGROV1 ovarian),GI50 (LOX IMVI melanoma),TGI (LOX IMVI melanoma),GI50 (OVCAR-5 ovarian) [µM],TGI (OVCAR-5 ovarian) [µM],GI50 (SK-OV-3 ovarian) [µM],TGI (SK-OV-3 ovarian),GI50 (UACC-62 melanoma) [µM],TGI (UACC-62 melanoma),GI50 (UO-31 renal) [µM],TGI (UO-31 renal)
Nc1nn2cc(F)cnc2c1C(=O)Nc1cncc(F)c1N1CCC(C(=O)N2CCN(C3COC3)CC2)CC1,0.181,0.857,0.246,1.55,0.235,3.16 µM,0.191,1.48,0.464,3.04 µM,0.285 µM,1.55 µM,0.616,> 100,0.243,6.02 µM,0.522,2.56 µM,0.284,2.62 µM
O=C(Nc1ccc(Br)cc1F)c1cc(F)ccc1O,0.172,0.667,0.356,1.4,0.314,2.62 µM,0.405,4.39,0.37,> 100 µM,0.405 µM,2.91 µM,3.85,> 100,0.405,2.55 µM,0.285,1 µM,0.21,1.27 µM
O=C(Nc1ccc(Nc2ccncc2)cc1)c1ccc([N+](=O)[O-])cc1,2.43,9,11.6,28.2,6.02,19.3 µM,5.8,25.9,13,36.9 µM,3.72 µM,14.7 µM,9.82,> 44.7,5.85,19.8 µM,2.65,9.64 µM,3.46,10.4 µM
O=C(Nc1ccc2ncccc2c1)Nc1ccc2ncccc2c1,–,> 100,–,> 100,–,> 100 µM,–,> 100,–,> 100 µM,–,> 100 µM,–,> 100,–,> 100 µM,–,> 100 µM,–,> 100 µM
COC(=O)c1ccc2c(c1)nc(NC(=O)c1ccccc1)n2CCCc1ccccc1,16,> 100,3.33,> 100,3.57,> 100 µM,30.2,> 100,5.01,> 100 µM,2.63 µM,> 100 µM,22.6,> 100,7.63,> 100 µM,2.49,> 27 µM,4.07,> 100 µM
C[N+](C)(C)CC1CCCc2ccccc2C1=O (centres undefined),–,27.6,–,33.4,2.06,6.71 µM and 5.04 µM,–,85.8,–,31.7 µM,1.93 µM and 2.23 µM,4.78 µM and 5.93 µM,–,28.8,–,34.5 µM,–,26.5 µM,–,30.7 µM
Cn1c(I)c(C#CCO[Si](C)(C)C(C)(C)C)c(=O)[nH]c1=O,19.9,38,16.4,30.3,3.29,12.6 µM,20.1,43.4,17.2,32.7 µM,1.83 µM,4.42 µM,18,33,> 100,> 100 µM,17.2,32.2 µM,14.6,28.6 µM
CCOC(=O)C1=CN(C)C=C(C(=O)OCC)C1c1cc(Br)c(OCC)c(OC)c1,4.99,94.9,> 100,> 100,53,> 100 µM,32.6,> 100,> 100,> 100 µM,> 100 µM,> 100 µM,> 100,> 100,> 100,> 100 µM,69.4,> 100 µM,39.9,> 100 µM
Cc1cc(Cl)cc(OCCn2cc(F)cn2)c1-c1nc(N)nc2c1CN(C(=O)NCC(C)(F)F)C2,0.261,> 100,50.3,> 100,0.755,> 100 µM,–,> 100,0.138,> 100 µM,0.0852 µM,0.552 µM,2.66,> 100,0.0492,> 100 µM,0.0779,> 100 µM,0.682,> 100 µM
O=C(/C=C/c1ccccc1)CCC1C(=O)c2ccccc2C1=O,–,> 100,–,> 100,–,> 100 µM,–,> 100,–,> 100 µM,–,> 100 µM,–,> 100,–,> 100 µM,–,> 100 µM,–,> 100 µM
COc1cc(OCc2cccc(-c3ccc(C(O)c4nccs4)cc3)c2C)cc(OC)c1C=O (centres undefined),0.103,0.238,1.77,6.78,0.182,3.3 µM,3.08,20.5,0.887,4.84 µM,1.79 µM,4.08 µM,0.929,5.54,6.07,20.9 µM,0.349,1.92 µM,1.49,4.68 µM
C(=NCCN1CCOCC1)=NC1CCCCC1,–,> 100,–,> 100,–,> 100 µM,–,> 100,–,> 100 µM,–,> 100 µM,–,> 100,–,> 100 µM,–,> 100 µM,–,> 100 µM
CN(C)CCNC(=O)c1cccc2ccc(-c3ccc(O)cc3)nc12,–,12.1,–,19.5,–,6.53 µM and 11.3 µM,–,13.4,2.06,15.7 µM and 11.8 µM,–,3.43 µM,–,9.11,–,15.7 µM and 9.75 µM,1.6,3.16 µM and 3.83 µM,1.58,7.35 µM and 5.12 µM
Cc1ccc(S(=O)(=O)Nc2ccccc2C=O)cc1,–,92.2,–,58.8,–,> 100 µM,–,59.6,–,38.3 µM,–,27.5 µM,–,67,–,94.8 µM,–,27 µM,–,26.8 µM
COc1cccc(C2CC(C)(O)Oc3cc4c(cc32)OCO4)c1O (centres undefined),–,> 100,–,62.4,–,> 100 µM,–,51.6,–,> 100 µM,–,> 100 µM,–,> 95.7,–,> 100 µM,–,> 75.9 µM,–,97.9 µM
